# Results as given in US12472175B2, “Methods of treating venetoclax-resistant acute myeloid leukemia” (OREGON HEALTH & SCIENCE UNIVERSITY, priority 2019, dated 2025).
# pIC50: −log10 of the molar value.
# How the values were obtained:
# [1] = tested on: MOLM-13 and MV4;11 cells with TP53 and BAX KOs; assay: Small molecule inhibitor panel screen, changes common to modified MOLM-13 and MV4;11 cells; type: cell-based, Human; settings: for sensitivity to NTRK/ALK/ROS1 inhibitors: cells with TP53 KO; for change in drug sensitivity common to modified MOLM-13 and MV4;11 cells: TP53 and BAX KOs relative to non-targeting control; for sensitivity to FLT3 inhibitors: TP53 inactivated MV4;11 and MOLM-13 cells
# Method: Small-molecule inhibitors, purchased from LC Laboratories (Woburn, Mass., USA) and Selleck Chemicals (Houston, Tex., USA), were reconstituted in DMSO and stored at −80° C. Inc. Inhibitors were distributed into 384-well plates prepared with a single agent/well in a 7-point concentration series ranging from 10 μM to 0.04 μM for each drug. […] After three days of culture at 37° C. in 5% CO2, MTS reagent (CellTiter96 AQueous One; Promega Madison, Wis., USA) was added, optical density was measured at 490 nm, raw absorbance values were adjusted to a reference blank value, and then used to determine cell viability (normalized to untreated control wells). Prizm software(GraphPad) was used to perform non-linear regression analyses on normalized values for the determination of IC50.
# FIG. 7A. MOLM-13 and MV4;11 cells, transduced with indicated sgRNAs/Cas9 viruses, were screened with a panel of inhibitors targeting various molecular pathways and assessed using the cell survival method described in FIG. 2A.
# FIG. 7B. Analyses of FLT3 inhibitor sensitivities, in MOLM-13 and MV4;11 parental and Crispr-modified cells, as indicated. Drug sensitivity was measured as described in FIG. 2A, with IC50 measured in triplicate.
# MOLM-13 cells [2] = assay: Cell viability (MTS) drug sensitivity assay in MOLM-13 cells transduced with sgRNA/Cas9 viruses; type: cell-based, Human
# Method: (§1) Small-molecule inhibitors, purchased from LC Laboratories (Woburn, Mass., USA) and Selleck Chemicals (Houston, Tex., USA), were reconstituted in DMSO and stored at −80° C. Inc. Inhibitors were distributed into 384-well plates prepared with a single agent/well in a 7-point concentration series ranging from 10 μM to 0.04 μM for each drug. The final concentration of DMSO was ≤1.1% in all wells. Cells were seeded into 384-well assay plates at 1,000 cells/well in RPMI-1640 media supplemented with fetal bovine serum (15%), L-glutamine, penicillin-streptomycin and antimycotic. After three days of culture at 37° C. in 5% CO2, MTS reagent (CellTiter96 AQueous One; Promega Madison, Wis., USA) was added, optical density was measured at 490 nm, raw absorbance values were adjusted to a reference blank value, and then used to determine cell viability (normalized to untreated control wells). Prizm software(GraphPad) was used to perform non-linear regression analyses on normalized values for the determination of IC50.
# FIG. 2. A. Confirmation of genes conferring venetoclax resistance in MOLM-13 and MV4;11 cells and correlations with changes in apoptotic gene transcription in AML patients. MOLM-13 (FIG. 2A) or MV4;11 (FIG. 2B) cells were transduced with lentiviruses carrying single sgRNA/Cas9 constructs targeting TP53, BAX, PMAIP1, FAU or control (non-targeting; NT_g). 10 days post transduction, venetoclax sensitivity was measured in triplicate by colorimetric MTS assay using a 7-point concentration range (4 nM to 10 μM). Percentages of viable cells, after normalization to untreated controls, were fit using non-linear regression analyses; mean and standard errors are shown. MOLM-13P, parental MOLM-13 cells. MV4;11P, parental MV4;11 cells. FIG. 2C. Histogram (log 2 scale) summarizing changes in venetoclax sensitivity in parental MOLM-13 (black shaded), parental MV4;11 cells (grey shaded) or cells transduced with indicated sgRNA/Cas9 viruses., IC50 values were calculated by non-linear regression analyses in the cell viability assay described in panel A. FIG. 2D. […]
# NTRK = assay: Western blot of NTRK and downstream MAPK phosphorylation; type: cell-based, Human; settings: TP53 KO MOLM-13, entrectinib 100 nM overnight; not in control or parental cells
# Method: Whole cells extracts from MOLM-13 or MV4;11 cells were prepared using 20 mM Tris-HCl (pH 7.5), 150 mM NaCl, 1 mM Na EDTA, 1 mM EGTA, 1% Triton, 2.5 mM sodium pyrophosphate, 1 mM beta-glycerophosphate, 1 mM Na3VO4, 1 μg/ml leupeptin (Cell Signalling), 1 mM PMSF, […] (Roche) and phosphatase inhibitor cocktail (Sigma-Aldrich). Proteins were resolved on 5-15% gradient gels (Biorad), transferred to PVDF membrane (Amersham) and subjected to immunoblotting using primary, followed by corresponding HRP-conjugated secondary antibodies (Promega), or biotinylated secondary antibody followed by streptavidin conjugated to HRP(TRK antibodies).
# FIG. 7E. Western blot analyses of proteins extracted from MOLM-13 parental and MOLM-13 transduced with TP53 sgRNA/Cas9 viruses and treated overnight with venetoclax (100 nM), entrectinib (100 nM) or DMSO (vehicle), and identified with antisera to pan NTRK, phosphorylated NTRK, phosphorylated ERK1/2, ERK1/2, phosphorylated AKT, AKT and GAPDH.
# MOLM-13 cells [3] = assay: Cell cycle profile by flow cytometry; type: cell-based, Human; settings: TP53 KO cells, 100 nM entrectinib o/n
# Method: FIG. 11. Entrectinib arrests cells with loss-of-function alleles for TP53 in G1. (FIG. 11A). Flow cytometry analyses of cells treated with 100 nM entrectinib o/n or vehicle alone. (FIG. 11B). Histogram representing cell cycle profiles of MOLM-13 cells transduced with sgRNAs/Cas9 viruses for non-targeting sgRNA (NT_g, n=3), TP53 sgRNA (TP53_g, n=3) or BAX (n=1); mean and standard deviation are shown where appropriate. (FIG. 11C). Cell viability assay assessing the sensitivity of the combination of entrectinib and venetoclax relative to sensitivities for each single agent on MOLM-13 cells transduced with sgRNAs/Cas9 viruses for TP53 sgRNA. Data were fit to a non-linear regression analysis with means and standard errors.
# [4] = tested on: primary AML patient cells; assay: Ex vivo viability (MTS) drug sensitivity in primary AML patient samples (Beat AML); type: cell-based
# Method: as §1
# FIG. 3. Venetoclax sensitivity in AML patients inversely correlates with TP53 mutations and low expression of TP53 and BAX. 3A. Venetoclax (VEN) sensitivity in primary AML patient samples was measured in a viability assay across a concentration series ranging from 10 nM to 10 μM. AUC was determined for each sample and plotted relative to TP53 mutant status or TP53 expression levels. LE and HE denote lowest and highest quartile expression values, respectively. […] Within TP53 mutant groups, circles, triangles and square symbols denote loss of function (LOF), gain of function (GOF), and splice variants correspondingly. 3B. Correlation between gene expression levels from AML patient samples for TP53, BAX, PMAIP1 and TMEM14A to the respective venetoclax sensitivities represented by AUC (n=442; [36]). k, slope values generated by linear regression; r, Spearman coefficient; ****, p<0.0001; ns, not significant.
# FIG. 12. Selected ex vivo drug sensitivity in AML patients' cells with mutant TP53 mutations. Histogram representing drug sensitivity, measured in primary AML patient cells ex vivo, in a viability MTS assay across a concentration series ranging from 10 nM to 10 μM, using 10,000 cells per well, in triplicates. […] Red bars denote median IC50 value.
# (§2) FIG. 13. Analyses of Venetoclax sensitivities in CLL and AML patient cohorts ex vivo. Scatter plot of IC50 values are indicated. Mann-Whitney test was performed on IC50 values to ascertain statistical differences of mean. ***, p<0.001.
# CLL patient specimens = assay: Ex vivo venetoclax sensitivity in CLL patient cohort; type: cell-based
# Method: as §1, §2
# MOLM-13 cells [5] = assay: Mitochondrial membrane potential (JC-1); type: cell-based, Human; settings: TP53 and BAX mutant cells, CCCP alone
# Method: Membrane depolarization was induced with CCCP. Cells were treated with 100 nM venetoclax or DMSO and with or without CCCP for 2 hrs prior to addition of the dye and flow cytometry.
# FIG. 5. […] Histogram of a representative mitophagy experiment (n=2). […] FIG. 5B. […] FIGS. 5C, 5D. […] FIG. 5E. […] FIG. 5F. Cell viability assay in response to elesclomol.
# MOLM-13 cells [6] = settings: cells with inactivation of TP53 and BAX, regardless of venetoclax treatment
# Method: Cells were loaded in complete medium with 100 nM mitophagy Dye (Mitophagy Detection Kit, Dojindo Molecular Technologies) and 25 nM MitoTracker Deep Red, incubated for 30 min at 37° C. with serum free RPMI, washed and treated with DMSO or 100 nM venetoclax in DMSO for 2 hrs. […] Cells were washed, loaded with lyso dye for 30 min and observed for fluorescence. Mitophagy was detected as intense fluorescence of mitodye upon fusion with lysosomes, detected with lyso dye (488 nm(Ex), 550 nm(Em). 10,000 cells were collected for analysis using a BD FACS Arian™III on 10,000 acquired events. The data were analyzed post acquisition using FlowJo software (Tree Star, Ashland, Oreg., USA). 10,000 cells were acquired using channels 405-2-A(lyso dye), 561-3-A(Mitophagy dye) and 640-1-A(MitoTracker Dye).
# Histogram of a representative mitophagy experiment (n=2). […] Histogram of a representative experiment from C (n=2) with 10,000 cells analyzed per sample.
# [7] = sensitivity printed as IC50≥0.5 μM
compound,measurement,setting,value
Cc1cc(Nc2nc(N[C@@H](C)c3ncc(F)cn3)ncc2Cl)n[nH]1 [AZD1480],sensitivity to NTRK/ALK/ROS1 inhibitors,[1],sustained gain of sensitivity
Cc1c2c(nn1C)CSCc1cc(n(C)n1)CSc1cc(c3ccccc3c1)OCCCc1c(C(=O)O)n(C)c3c-2c(Cl)ccc13 [AZD5991],"sensitivity to MCL1 inhibitor, TP53 KO",MOLM-13 cells [2]; TP53 KO MOLM13 cells,significantly diminished
CS(=O)(=O)N1CCN(Cc2cc3nc(-c4cccc5[nH]ncc45)nc(N4CCOCC4)c3s2)CC1 [GDC-0941],change in drug sensitivity common to modified MOLM-13 and MV4;11 cells,[1],increased
COc1ccc(COc2ccc(Cc3cnc(N)nc3N)cc2OC)cc1 [GW-2580],sensitivity to NTRK/ALK/ROS1 inhibitors,[1],sustained gain of sensitivity
O=S(=O)(NCCNC/C=C/c1ccc(Br)cc1)c1cccc2cnccc12 [H-89],change in sensitivity between BAX-inactivated MV4;11 and MOLM-13 cells,"[1]; BAX-inactivated, also overlapped in TP53 inactivated cells",concordant changes
Oc1cccc(-c2nc(N3CCOCC3)c3oc4ncccc4c3n2)c1 [PI-103],change in drug sensitivity common to modified MOLM-13 and MV4;11 cells,[1],increased
COCCn1c2c([n+](Cc3cnccn3)c1C)C(=O)c1ccccc1C2=O [YM-155],change in drug sensitivity common to modified MOLM-13 and MV4;11 cells,[1],increased
CC1(COc2ccc3c(c2)ncn3-c2ccc3cccc(N4CCC(N)CC4)c3n2)COC1 [crenolanib],sensitivity to FLT3 inhibitors,[1],loss of sensitivity
C[C@@H](Oc1cc(-c2cnn(C3CCNCC3)c2)cnc1N)c1c(Cl)ccc(F)c1Cl [crizotinib],sensitivity to NTRK/ALK/ROS1 inhibitors,[1],sustained gain of sensitivity
CN(NC(=O)CC(=O)NN(C)C(=S)c1ccccc1)C(=S)c1ccccc1 [elesclomol],cell viability in response to elesclomol,MOLM-13 cells [2]; TP53 and BAX KO cells,still susceptible to cell death
CN1CCN(c2ccc(C(=O)Nc3n[nH]c4ccc(Cc5cc(F)cc(F)c5)cc34)c(NC3CCOCC3)c2)CC1 [entrectinib],phosphorylation of NTRK and downstream MAPK signaling,NTRK,significant decreases in phosphorylation
same,cell cycle effect,MOLM-13 cells [3],G1 cell cycle blockade
same,sensitivity to NTRK/ALK/ROS1 inhibitors,[1],sustained gain of sensitivity
same,ex vivo drug sensitivity in AML patient cells with TP53 mutations,"[4]; several patient specimens, 10 nM to 10 μM",relatively high sensitivity
O=C(Nc1cnn2ccc(N3CCC[C@@H]3c3cc(F)ccc3F)nc12)N1CC[C@H](O)C1 [larotrectinib],sensitivity to selective NTRK inhibitor,MOLM-13 cells [2]; TP53 KO,profound gain of sensitivity
CNC(=O)c1cc(Oc2ccc(NC(=O)Nc3ccc(Cl)c(C(F)(F)F)c3)cc2)ccn1 [sorafenib],sensitivity to FLT3 inhibitors,[1],loss of sensitivity
CC1(C)CCC(CN2CCN(c3ccc(C(=O)NS(=O)(=O)c4ccc(NCC5CCOCC5)c([N+](=O)[O-])c4)c(Oc4cnc5[nH]ccc5c4)c3)CC2)=C(c2ccc(Cl)cc2)C1 [venetoclax],pIC50,"CLL patient specimens; Homo sapiens, CLL, 141 patients, read-out: Median IC50, venetoclax sensitivity ex vivo, CLL cohort",5.85
same,share of CLL specimens exhibiting sensitivity to venetoclax,CLL patient specimens; [7],~55%
same,pIC50,"[4]; Homo sapiens, AML, 289 patients, read-out: Median IC50, venetoclax sensitivity ex vivo, AML cohort",7.00
same,median IC50 for AML relative to that for CLL,"[4]; ex vivo patient samples, Beat AML cohort",14 times
same,share of AML specimens exhibiting sensitivity to venetoclax,[4]; [7],about 40%
carboyl cyanide m-chlorophenyl hydrazine [CCCP],loss of mitochondrial membrane potential in response to uncoupler,MOLM-13 cells [5],less likely to lose mitochondrial membrane potential
same,mitophagy in response to mitochondrial uncoupler,MOLM-13 cells [6],less likely to undergo mitophagy or mitochondrial death
